Results reported in ChEMBL document CHEMBL4842311, “Novel Mechanistic Observations and NES-Binding Groove Features Revealed by the CRM1 Inhibitors Plumbagin and Oridonin” (J Nat Prod, 2021).
Active and inactive are the calls of the source. The rule behind the calls is not given here.

Columns and labels:
Saccharomyces cerevisiae [1] = test: Inhibition of Yeast GST-tagged/TEV cleavage site fused CRM1 C152/C539/D1034A triple mutant expressed in Escherichia coli BL21 (DE3) assessed as decrease in NES binding at 60 uM measured after 2 hrs by coomassie blue staining based pull-down assay
[2] = target: Exportin-1 (Homo sapiens) (UniProt O14980); test: Inhibition of human wild type CRM1 assessed as C528 conjugation at 20 uM incubated for 2 hrs before binding by coomassie blue staining based pull-down assay
Chain of Exportin-1 (Homo sapiens) (O14980 whole entry): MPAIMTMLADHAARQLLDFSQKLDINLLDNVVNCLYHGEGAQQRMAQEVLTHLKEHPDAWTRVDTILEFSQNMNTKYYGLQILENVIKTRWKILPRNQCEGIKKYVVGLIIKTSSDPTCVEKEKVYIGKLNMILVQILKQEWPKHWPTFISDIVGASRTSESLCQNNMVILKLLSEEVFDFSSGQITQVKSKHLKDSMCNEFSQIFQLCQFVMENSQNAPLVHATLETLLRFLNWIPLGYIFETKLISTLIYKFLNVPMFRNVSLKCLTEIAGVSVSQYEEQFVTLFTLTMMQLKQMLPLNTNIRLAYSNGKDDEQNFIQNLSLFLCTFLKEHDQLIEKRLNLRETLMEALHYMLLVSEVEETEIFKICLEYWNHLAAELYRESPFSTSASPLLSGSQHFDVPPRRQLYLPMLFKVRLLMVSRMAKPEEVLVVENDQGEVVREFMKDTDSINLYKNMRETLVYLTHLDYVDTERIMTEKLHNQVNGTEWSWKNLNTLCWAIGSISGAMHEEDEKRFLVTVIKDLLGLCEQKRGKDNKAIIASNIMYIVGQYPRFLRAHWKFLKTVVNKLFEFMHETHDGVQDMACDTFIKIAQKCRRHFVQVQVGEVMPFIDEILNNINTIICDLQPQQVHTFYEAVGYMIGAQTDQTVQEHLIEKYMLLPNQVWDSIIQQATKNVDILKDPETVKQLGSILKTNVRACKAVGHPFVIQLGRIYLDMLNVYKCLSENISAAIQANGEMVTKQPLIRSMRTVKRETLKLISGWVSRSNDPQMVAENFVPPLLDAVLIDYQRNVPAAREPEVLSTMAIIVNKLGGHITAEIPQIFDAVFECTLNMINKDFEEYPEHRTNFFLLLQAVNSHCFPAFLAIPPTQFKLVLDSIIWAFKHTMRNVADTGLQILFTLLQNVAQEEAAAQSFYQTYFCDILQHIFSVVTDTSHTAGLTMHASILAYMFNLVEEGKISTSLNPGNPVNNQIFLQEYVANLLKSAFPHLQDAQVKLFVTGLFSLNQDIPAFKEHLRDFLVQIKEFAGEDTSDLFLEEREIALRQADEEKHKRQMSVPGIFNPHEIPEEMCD

[3] = test system: Exportin-1 (Homo sapiens), O14980 [C528S]; test: Inhibition of human CRM1-C528S mutant assessed as C528 conjugation at 20 uM incubated for 2 hrs before binding by coomassie blue staining based pull-down assay
Chain of Exportin-1 (Homo sapiens), O14980 [C528S] (O14980 whole entry C528S, the tested form may be a part): as the sequence (O14980 whole entry) above, with C528S counted along it

Saccharomyces cerevisiae [4] = test: Inhibition of Yeast GST-tagged/TEV cleavage site fused CRM1 C152/C539 double mutant expressed in Escherichia coli BL21 (DE3) assessed as C1022 conjugation mediated NES inhibition at 60 uM measured after 2 hrs by coomassie blue staining based pull-down assay
[5] = target: Exportin-1 (Homo sapiens) (UniProt O14980); test: Inhibition of human CRM1-WT assessed as C528 conjugation at 1 uM incubated for 2 hrs before binding by coomassie blue staining based pull-down assay

Question: Which results are given for `CC1=CC(=O)c2c(O)cccc2C1=O`?
Answer: inhibition (Saccharomyces cerevisiae [1]): Active; inhibition [2]: Active; inhibition [3]: Active

Question: Which results are given for `O=C(/C=C\n1cnc(-c2cc(C(F)(F)F)cc(C(F)(F)F)c2)n1)NNc1cnccn1`?
Answer: inhibition [2]: Active; inhibition [3]: Active

Question: Which results are given for `C=C1C(=O)[C@]23[C@H](O)[C@H]1CC[C@H]2[C@@]12CO[C@]3(O)[C@@H](O)[C@@H]1C(C)(C)CC[C@@H]2O`?
Answer: inhibition (Saccharomyces cerevisiae [4]): Active; inhibition (Saccharomyces cerevisiae [1]): Active; inhibition [2]: Active; inhibition [3]: Active; inhibition [5]: inactive
